Experimental data as given in patent US20220107246A1, “NONCOVALENT TAGS AND RELATED METHODS FOR CYTOSOLIC DELIVERY OF MACROBIOMOLECULES” (University of Washington, priority 2019, published 2022).
“Also recorded” adds a separate entry of the source.

How the values were obtained:
siRNA [1] = test: Gel electrophoresis of siRNA with intercalators; conditions: high degree of intercalation
From the text: FIGS. 2A-2H illustrate tag design and characterizations. (FIG. 2A) Intercalation of conventional DNA intercalators into siRNA monitored by fluorescence activation. Ethidium and acridinium show similar fluorescence activation in both DNA and RNA, unlike the others. (FIG. 2B) Gel electrophoresis of siRNA with acridinium and ethidium at low and high degree of intercalation. […] (FIG. 2C) Screening hydrophobic compounds (after linking with ethidium) for mRNA (PPIB) knockdown in PC-3 cells. The numbers represent the compounds illustrated in FIG. 2D. Steroids such as cholesterol and stigmasterol offer the highest RNAi efficiency. (FIG. 2D) Molecular structures of the 14 exemplary chemical tags tested in the current study. The hydrophobic compounds are linked to ethidium via a C6 spacer. (FIG. 2E) Dose response of gene knockdown using siRNA tagged with ethidium-cholesterol (left) in PC-3 cells. […]
To test this new concept of cytosolic delivery, a conjugation-free methodology was investigated that incorporated small chemical tags to transform siRNA sufficiently hydrophobic, membrane-permeant, and self-deliverable. […] Eight DNA intercalating dyes (molecular structures shown in FIG. 7) were evaluated utilizing a very convenient feature of these dyes, fluorescence activation upon intercalation into oligonucleotides. […]

siRNA [2] = test: Intercalation into siRNA monitored by fluorescence activation; assay type: binding; conditions: for fluorescence activation upon intercalation into siRNA: compared with DNA (positive control); for intercalation of tag into siRNA (fluorescence enhancement): compared to tag 5
Protocol: To test this new concept of cytosolic delivery, a conjugation-free methodology was investigated that incorporated small chemical tags to transform siRNA sufficiently hydrophobic, membrane-permeant, and self-deliverable. […] For a proof of concept, a number of existing oligonucleotide intercalators were tested, due to their potential to non-covalently attach the lipophilic moiety to siRNA. Although DNA intercalating dyes are well-studied and broadly available, selection of dsRNA intercalators is limited. […] DNA intercalating dyes apply a stretching force thus may or may not work on siRNA. Eight DNA intercalating dyes (molecular structures shown in FIG. 7) were evaluated utilizing a very convenient feature of these dyes, fluorescence activation upon intercalation into oligonucleotides. […] Therefore, ethidium was used in the following studies.
After 5-minute incubation, the mixture was diluted to 100 μL and the fluorescence was measured with the microplate reader. The fluorescence increment (J. B. Le Pecq, et al., DNA polyintercalating drugs: DNA binding of diacridine derivatives, Proc Natl Acad Sci USA 72(8) (1975) 2915-9; B. Gaugain, et al., DNA Bifunctional intercalators. 2. Fluorescence properties and DNA binding interaction of an ethidium homodimer and an acridine ethidium heterodimer, Biochemistry 17(24) (1978) 5078-88, each of which is incorporated herein by reference in its entirety), ΔIF, is the difference of fluorescence intensity of the tags in the presence or absence of siRNA.

[3] = tested on: peptidylprolyl isomerase B (PPIB) mRNA; test: siRNA delivery and real time RT PCR (PPIB mRNA knockdown in PC-3 cells); assay type: cell-based; conditions: siRNA complexed with tag, real-time PCR
Protocol: A small library of 14 chemicals that represent various lipophilicities while sharing a carboxylic acid group for easy conjugation with ethidium was screened. These hydrophobic compounds were chemically linked to ethidium via a hexacarbon (C6) linker. The resulting small-molecule tags were mixed with a model siRNA sequence against peptidylprolyl isomerase B (PPIB) and tested on a prostate tumor cell line, PC-3, for RNAi.
PC-3 cells were seeded in 24-well plate at density of 5,000 cells per well. […] Total RNA was isolated from the cell monolayer using Trizol reagent (Invitrogen) according to the manufacturer's protocol. 200 nanograms of RNA was converted to cDNA using random hexamer primer and MultiScribe Reverse Transcriptase Reagent (Applied Biosystems, Inc., Branchburg, N.J.). 100 nanograms of cDNA was amplified by SensiFast SYBR kit (Bioline, Taunton, Mass.) on a Chromo4™ Real-Time system (Bio-Rad, Hercules, Calif.). The primers used for PPIB amplification were 5′-[…]-3′ (forward primer; SEQ ID NO:6) and 5′-[…]-3′ (reverse primer; SEQ ID NO:7). Primers for detection of 18s were 5′-[…]-3′ (forward primer; SEQ ID NO:8) and 5′-[…]-3′ (reverse primer; SEQ ID NO:9).

actin in HeLa cells = test: F-actin labeling in live cells using LifeAct-GFP; assay type: cell-based
Protocol: Lastly, two applications that should have a major impact on biology and medicine, immunofluorescence in live cells, and delivery of therapeutic proteins inside cells were assessed for compatibility with the disclosed tag approach for cytosolic delivery. Immunofluorescence, one of the most common techniques in biological and medical research, is currently used to profile cell surface markers on live cells (e.g., many flow cytometry studies) missing all the key cell signaling nodes inside cells. Alternatively, immunofluorescence is currently used on fixed cells, missing the temporal dynamics of active cell signaling that determines cell fate, behavior, communications, and growth. […] Briefly, HeLa cells were incubated with cholesterol-tagged LifeAct-GFP or LifeAct-GFP alone and the cells were imaged. […] To confirm the labeling specificity, cells were pretreated with cytochalasin-D before incubating with LifeAct-Tag.
HeLa cells were seeded onto glass-bottom dishes. After one-day of culturing, cells were incubated with fresh media containing tagged LifeAct-GFP for 4 h at 37° C., followed by washing and counterstaining Hoechst 33258. The cells were imaged on an Olympus fluorescence microscope equipped with a true-color CCD, Qcolor 5.

HeLa cells = test: Cellular delivery of tagged proteins, confocal microscopy; assay type: cell-based; conditions: for intracellular fluorescence pattern of cholesterol-tagged protein: protein tagged with CB-cholesterol tag
Protocol: Purified Coomassie blue-cholesterol tag powder was reconstituted with ethanol/water (v/v: 4/1) to a concentration of 1.6 mM and stored at 4° C. as a stock. Before tagging, the concentration of all the protein solutions was diluted to 25 μM. […] The mixture was quickly mixed by pipetting. The mixture was incubated in a water bath (37° C.) for 8 min and sonicated in an ultrasonic water bath for 30 seconds. After another round of 8-min water bath incubation at 37° C., the protein was ready for delivery.
(§1) Cells were seeded on glass-bottom dishes (poly-D-lysine treated, MatTek Corp.) one day before the experiments. The cell monolayer was washed once with serum-free RPMI 1640 media and treated with 2 mL of RPMI 1640 media containing the tagged protein at a final concentration of 1 μM for 2 h. In the end, the cells were counter-stained with Hoechst 33342 and Alexa Fluor® 594 labeled Wheat Germ Agglutinin (WGA-AF594), respectively. The cells were washed three times with RPMI 1640 and imaged on a Zeiss LSM 710 microscope.
To study the delivery effect at low temperature (4° C.), cell monolayers were pre-equilibrated with cold media (RPMI 1640) for 10 minutes at 4° C. and then treated with the cold solution of tagged protein for 3 h. The cells were washed with cold media and imaged immediately.

[4] = tested on: PC-3, MDA-MB-231, SK-BR-3, DU-145, KB, and HEK-293T; test: Cellular delivery of aprotinin-tag complex in additional cell types; assay type: cell-based; conditions: protein-tag complex; independent of the cell lines
Protocol: To further rule out the scenario that the tagged proteins initially enter cells via endocytosis followed by an efficient endosomal escape, the confocal microscopy experiment were performed again using the small protein, aprotinin, at 4° C., a temperature that blocks endocytic membrane trafficking. […] To evaluate the generality of this protein tagging technology, it was tested using […] additional cell types besides HeLa cells (i.e., PC-3, MDA-MB-231, SK-BR-3, DU-145, KB, and HEK-293T). Cells exposed to protein (aprotinin)-tag complex and then stained for protinin and WGA to show the cell boundary. […] Perhaps more importantly, protein transfection directly into the cytosol was also achieved in further experiments of primary cells including human adipose-derived stem cells, primary human dermal fibroblasts, and primary human umbilical vein endothelial cells (HUVEC) (not shown).
as §1, with “The cells were washed three times with RPMI 1640 and imaged on a Zeiss LSM 710 microscope.” left out

CC[n+]1c(-c2ccccc2)c2cc(N)ccc2c2ccc(N)cc21 [ethidium, reference compound]
unwinding of siRNA duplex (siRNA [1]): does not
fluorescence activation upon intercalation into siRNA (siRNA [2]): strong binding with siRNA

3,8-bis(tert-butyloxycarbonylamino)-5-(6-L-leucinylcarbonylamino-hexyl)-6-phenylphenanthridine [tag 2]
RNAi effect (PPIB mRNA knockdown), tag screening [3]: no or low effect

3,8-bis(tert-butyloxycarbonylamino)-5-[6-(1,2-dipalmitin)-carboylamino-hexyl]-6-phenylphenanthridine [tag 14]
intercalation of tag into siRNA (fluorescence enhancement) (siRNA [2]): minor fluorescence enhancement; also recorded: failed to intercalate into siRNA
RNAi effect (PPIB mRNA knockdown), tag screening [3]: no RNAi effect

3,8-bis(tert-butyloxycarbonylamino)-5-(6-L-histinylcarbonylamino-hexyl)-6-phenylphenanthridine [tag 3]
RNAi effect (PPIB mRNA knockdown), tag screening [3]: no or low effect

Coomassie blue, dicholest carbamyl 3-(3-propyl dimethyl amino)propyl sulfonamide [cholesterol tag]
imaging quality of delivered LifeAct-GFP (actin in HeLa cells; same LifeAct-GFP concentration): significantly better contrast

3,8-bis(tert-butyloxycarbonylamino)-5-(6-cerotylcarbonylamino-hexyl)-6-phenylphenanthridine [tag 9]
intercalation of tag into siRNA (fluorescence enhancement) (siRNA [2]): minor fluorescence enhancement; also recorded: failed to intercalate into siRNA
RNAi effect (PPIB mRNA knockdown), tag screening [3]: failed to lower the PPIB mRNA level

3,8-bis(tert-butyloxycarbonylamino)-5-(6-pentadecylcarbonylamino-hexyl)-6-phenylphenanthridine [tag 8]
RNAi effect (PPIB mRNA knockdown), tag screening [3]: no or low effect

3,8-bis(tert-butyloxycarbonylamino)-5-(6-chloroquinecarboylamino-hexyl)-6-phenylphenanthridine [tag 13]
RNAi effect (PPIB mRNA knockdown), tag screening [3]: no or low effect

3,8-bis(tert-butyloxycarbonylamino)-5-(6-L-argininylcarbonylamino-hexyl)-6-phenylphenanthridine [tag 4]
RNAi effect (PPIB mRNA knockdown), tag screening [3]: no or low effect

3,8-bis(tert-butyloxycarbonylamino)-5-(6-cholesterylcarbonylamino-hexyl)-6-phenylphenanthridine [tag 5]
RNAi effect (PPIB mRNA knockdown), tag screening [3]: significant RNAi effect

C=C1[C@@H](C)[C@H]2[C@H](Cc3ccccc3)NC(=O)[C@]23[C@H](OC(C)=O)/C=C/[C@@](C)(O)C(=O)[C@@H](C)C/C=C/[C@H]3[C@@H]1O [cytochalasin-D, reference compound]
actin filament structure after pretreatment (actin in HeLa cells; cells pretreated before incubating with LifeAct-Tag): completely disrupted

3,8-bis(tert-butyloxycarbonylamino)-5-(6-caprylcarbonylamino-hexyl)-6-phenylphenanthridine [tag 7]
RNAi effect (PPIB mRNA knockdown), tag screening [3]: no or low effect

lysozyme: protein, 15 kDa, fluorescently labeled cargo
intracellular fluorescence pattern of cholesterol-tagged protein (HeLa cells; HeLa cells): diffused distribution while having a few punctate bright spots
intracellular fluorescence distribution (HeLa cells; tag:protein molar ratio 1:1): only punctate intracellular fluorescence distribution
intracellular fluorescence distribution (HeLa cells; tag:protein molar ratio 3:1): only punctate intracellular fluorescence distribution
intracellular fluorescence distribution (HeLa cells; tag:protein molar ratio 6:1): diffused fluorescence signal started to appear
intracellular fluorescence distribution (HeLa cells; tag:protein molar ratio 8:1): significant direct membrane permeation

aprotinin
intracellular fluorescence pattern of cholesterol-tagged protein (HeLa cells; HeLa cells): bright and homogeneous fluorescence intracellular distribution
intracellular fluorescence pattern without the cholesterol tag (HeLa cells; HeLa cells, same condition, no tag): only a few punctate fluorescent spots
uptake by cells at 4° C. (HeLa cells; low tag/protein ratio): virtually confined to the cell membrane
uptake by cells at 4° C. (HeLa cells; optimal tag/aprotinin ratio): bright and homogeneous intracellular fluorescence
uptake by cells at 4° C. (HeLa cells; without the tag): negligible
cytosolic delivery in additional cell types [4]: Efficient cytosolic delivery

3,8-bis(tert-butyloxycarbonylamino)-5-(6-stigmasterylcarbonylamino-hexyl)-6-phenylphenanthridine [tag 6]
RNAi effect (PPIB mRNA knockdown), tag screening [3]: significant RNAi effect

acridinium [reference compound]
unwinding of siRNA duplex (siRNA [1]): unwound the siRNA double helix
fluorescence activation upon intercalation into siRNA (siRNA [2]): strong binding with siRNA
